For assay [1], the system named is LNCaP cells stably transfected with pPSA (e/p)-DBD/F. Kind of assay: Androgen-regulated PARP-DBD expression (Western blot, RT-PCR, in situ immunofluorescence) in stably transfected LNCaP cells. Type of assay: cell-based, human. To be noted: R1881 0-10 nM, 24 hours, charcoal-stripped serum for seven days. The protocol: The androgen responsive prostate carcinoma LNCaP and androgen independent PC-3 cell lines were obtained from American Type Culture Collection (Manassas, Va.) and maintained by serial passage in DMEM supplemented with 10% fetal bovine serum, 100 units/ml penicillin, and 100 μg/ml streptomycin at 37° C. in an atmosphere of 5% CO2 in air. Cells subjected to androgen stimulation tests were maintained in media with 10% charcoal-stripped fetal bovine serum for seven days before the addition of synthetic androgen R1881 (Perkin Elmer Life Science). […]
RNA was isolated from cells using TRIzol Reagent (Gibco) according to manufacturer's protocol. […] The amplified RT-PCR products were analyzed by 1% agarose gel electrophoresis, visualized by ethidium bromide staining and photographed under UV illumination.
Immunodetection of PARP-DBD Flag-fusion protein in human prostate carcinoma cells was performed as previously described (Soldatenkov et al., Cancer J Sci. Am., 3: 13-20 (1997)). […] Insoluble material was removed by centrifugation at […] for 30 min at 16,000×g and protein concentrations were determined using the “Micro BCA protein assay” (Pierce). […] Signals were detected using the enhanced chemiluminescence system (Amersham). […]
For orientation: Immunoblotting shows a protein as a band on a membrane.

The subject of another assay is LNCaP cells. Kind of assay: Annexin V cell death assay (flow cytometry). Type of assay: cell-based, human. To be noted: parental LNCaP cells and un-induced LNCaP-DBD sublines; etoposide 10 μM; 24 h. The protocol: Surface expression of phosphadtidyl serine was determined by Annexin V staining (Trevigen) according to the manufacturer's recommendations. Briefly, LNCaP cells (2-5×10^5) were harvested, washed in PBS and exposed to FITC-labeled Annexin V. To exclude staining of phosphadtidyl serine on the inner surface of the cell membrane, indicative of cytoplasmic membrane disintegration, cells were counterstained with propidium iodite. FITC-Annexin V and propidium iodite staining was determined using a FACStar Plus flow cytometer (Becton Dickinson FACS System). Apoptotic cells were defined as FITC positive and PI negative.
A general note: A flow cytometer gives signals particle by particle.

For a further assay, the system named is plasmid DNA fragments. Kind of assay: Atomic force microscopy of PARP / PARP-DBD interaction with DNA. The class given is binding. How it is done:
DNA samples or PARP-DNA binding reaction product in Mg^2+containing buffer were deposited on an […] mica surface, allowed to adsorb for 1 min, rinsed with deionized water, and dried in a gentle nitrogen flow. The AFM images were obtained using a NanoScope IIIa instrument equipped with E-scanner (Digital Instruments, Santa Barbara, Calif.) operating in a tapping mode in air as described (Smulson et al., Cancer Res., 58: 3495-3498 (1998)). The tapping frequency of the 125 μm silicon cantilever was 300-400 KHz and the nominal scanning rate was set at 1-2 Hz. No less than 150 uncomplexed DNA molecules and 100 of PARP-DNA complexes were analyzed in each experiment.

This note sets out measurements from patent publication US20040067904A1, “Gene therapy for prostate cancer: sensibilization of cells to dna damaging drugs and radiation” (priority 2003, published 2004).

Turning to `C[C@]1(O)CC[C@H]2[C@@H]3CCC4=CC(=O)CCC4=C3C=C[C@@]21C` [R1881], the “stimulation of PARP-DBD expression at levels of mRNA and protein” value in assay [1] is “dose-dependent stimulation”. For `COc1cc([C@@H]2c3cc4c(cc3[C@@H](O[C@@H]3O[C@@H]5CO[C@@H](C)O[C@H]5[C@H](O)[C@H]3O)[C@H]3COC(=O)[C@H]23)OCO4)cc(OC)c1O` [etoposide], the “annexin V-binding activity (early apoptotic changes)” value in the assay with LNCaP cells was “only modest increase”. Turning to “Poly(ADP-ribose) polymerase [recombinant full length PARP]”, the “binding to DNA fragments (AFM)” value in the assay on plasmid DNA fragments (absence of NAD+) is “bound plasmid DNA fragments and linked them into chainlike structures”; with plasmid DNA fragments (presence of NAD+), “dissociated from the DNA fragments”.
